The term mass density denotes mass per unit of volume. Broadly, the vapor or sublimation pressure is the pressure of vapour in equilibrium with the condensed phase. As usually defined, the refractive index is a measure of how strongly the sample bends light.

The conditions of series [1]: Liquid; for mass density: 293.15 K, 101.33 kPa, Vibrating tube method.
A short description of series [2]: refractive index (Na D-line) (dimensionless). The note with it: 293.15 K; 101.33 kPa; Liquid; Standard Abbe refractometry.

± gives the expanded uncertainty stated by the source.

As for `CC(C)(C)O` [2-methylpropan-2-ol], the mass density in series [1] was 788.5 ± 0.3 kg/m3. Moreover, the “vapor or sublimation pressure” value in series [1] (354.3 K, Ebulliometric method (Recirculating still)) is reported as 96.5 ± 4.8 kPa. For the same compound, in series [2], the refractive index was 1.3878 ± 0.0008.
As for `CCO` [ethanol], in series [1], the mass density is recorded as 788.9 ± 0.3 kg/m3. Besides, the “vapor or sublimation pressure” value in series [1] (350.21 K, Closed cell (Static) method) is recorded as 96.5 ± 4.8 kPa. Moreover, the refractive index in series [2] turned out to be 1.3609 ± 0.0007.
Turning to `CCCCCCCO` [heptan-1-ol], the mass density in series [1] is listed as 821.8 ± 0.3 kg/m3. Also, the “vapor or sublimation pressure” value was 96.5 ± 4.8 kPa in series [1] (447.7 K, Ebulliometric method (Recirculating still)) and 96.5 ± 4.8 kPa in series [1] (447.74 K, Ebulliometric method (Recirculating still)). Moreover, in series [2], the refractive index is given as 1.4227 ± 0.001.
On to `CO` [methanol], for which, in series [1], the mass density worked out at 791.2 ± 0.3 kg/m3. The “vapor or sublimation pressure” value in series [1] (336.48 K, Closed cell (Static) method) is recorded as 96.5 ± 4.8 kPa. Also, in series [2], the refractive index worked out at 1.3285 ± 0.0007.
In the case of `CCCO` [propan-1-ol], the mass density in series [1] was found to be 803.4 ± 0.3 kg/m3. In addition, in series [1] (369.09 K, Closed cell (Static) method), the “vapor or sublimation pressure” value is 96.5 ± 4.8 kPa. In addition, the refractive index in series [2] stood at 1.3851 ± 0.0007.

The record behind these values is the NIST ThermoML archive (doi:10.1021/je300696c).
